Experiments:
[1] = target: PIK3CD (Human) (UniProt O00329); experiment: Cell-Based Assay; details: raji
[2] = target: PIK3CG (human) (UniProt P48736); experiment: Enzyme Assay
[3] = target: PIK3CB (Human) (UniProt P42338); experiment: Enzyme Assay
[4] = target: PIK3CA (human) (UniProt P42336); experiment: Enzyme Assay
Sequence of PIK3CA (human) (P42336 whole entry, looked up): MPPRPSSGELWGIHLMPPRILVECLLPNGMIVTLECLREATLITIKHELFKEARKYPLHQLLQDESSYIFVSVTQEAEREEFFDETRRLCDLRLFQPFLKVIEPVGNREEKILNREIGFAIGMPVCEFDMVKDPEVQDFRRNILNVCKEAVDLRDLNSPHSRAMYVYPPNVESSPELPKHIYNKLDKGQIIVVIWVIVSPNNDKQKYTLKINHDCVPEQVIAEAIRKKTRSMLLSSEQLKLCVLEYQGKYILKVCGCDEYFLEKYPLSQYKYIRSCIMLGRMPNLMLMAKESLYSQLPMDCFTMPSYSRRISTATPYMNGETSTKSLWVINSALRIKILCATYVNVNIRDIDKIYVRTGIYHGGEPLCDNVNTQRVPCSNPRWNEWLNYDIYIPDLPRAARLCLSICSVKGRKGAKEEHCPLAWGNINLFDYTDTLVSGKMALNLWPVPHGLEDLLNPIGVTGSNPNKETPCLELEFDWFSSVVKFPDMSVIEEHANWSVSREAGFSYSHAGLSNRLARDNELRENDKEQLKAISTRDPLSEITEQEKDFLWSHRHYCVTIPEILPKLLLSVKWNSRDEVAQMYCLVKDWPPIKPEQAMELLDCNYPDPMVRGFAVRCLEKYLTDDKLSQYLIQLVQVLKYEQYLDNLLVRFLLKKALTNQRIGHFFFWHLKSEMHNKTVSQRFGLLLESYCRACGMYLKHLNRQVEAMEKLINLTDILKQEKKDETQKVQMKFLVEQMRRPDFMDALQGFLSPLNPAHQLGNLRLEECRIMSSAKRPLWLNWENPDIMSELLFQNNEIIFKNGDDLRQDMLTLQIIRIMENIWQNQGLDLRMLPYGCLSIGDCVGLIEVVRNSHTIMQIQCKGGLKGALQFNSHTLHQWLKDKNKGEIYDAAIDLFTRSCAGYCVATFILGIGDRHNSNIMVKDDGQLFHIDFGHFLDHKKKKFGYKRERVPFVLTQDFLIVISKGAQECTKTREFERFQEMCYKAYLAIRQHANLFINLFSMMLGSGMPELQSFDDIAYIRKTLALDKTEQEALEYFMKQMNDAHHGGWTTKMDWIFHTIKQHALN

Sequence of PIK3CB (Human) (P42338 whole entry, looked up): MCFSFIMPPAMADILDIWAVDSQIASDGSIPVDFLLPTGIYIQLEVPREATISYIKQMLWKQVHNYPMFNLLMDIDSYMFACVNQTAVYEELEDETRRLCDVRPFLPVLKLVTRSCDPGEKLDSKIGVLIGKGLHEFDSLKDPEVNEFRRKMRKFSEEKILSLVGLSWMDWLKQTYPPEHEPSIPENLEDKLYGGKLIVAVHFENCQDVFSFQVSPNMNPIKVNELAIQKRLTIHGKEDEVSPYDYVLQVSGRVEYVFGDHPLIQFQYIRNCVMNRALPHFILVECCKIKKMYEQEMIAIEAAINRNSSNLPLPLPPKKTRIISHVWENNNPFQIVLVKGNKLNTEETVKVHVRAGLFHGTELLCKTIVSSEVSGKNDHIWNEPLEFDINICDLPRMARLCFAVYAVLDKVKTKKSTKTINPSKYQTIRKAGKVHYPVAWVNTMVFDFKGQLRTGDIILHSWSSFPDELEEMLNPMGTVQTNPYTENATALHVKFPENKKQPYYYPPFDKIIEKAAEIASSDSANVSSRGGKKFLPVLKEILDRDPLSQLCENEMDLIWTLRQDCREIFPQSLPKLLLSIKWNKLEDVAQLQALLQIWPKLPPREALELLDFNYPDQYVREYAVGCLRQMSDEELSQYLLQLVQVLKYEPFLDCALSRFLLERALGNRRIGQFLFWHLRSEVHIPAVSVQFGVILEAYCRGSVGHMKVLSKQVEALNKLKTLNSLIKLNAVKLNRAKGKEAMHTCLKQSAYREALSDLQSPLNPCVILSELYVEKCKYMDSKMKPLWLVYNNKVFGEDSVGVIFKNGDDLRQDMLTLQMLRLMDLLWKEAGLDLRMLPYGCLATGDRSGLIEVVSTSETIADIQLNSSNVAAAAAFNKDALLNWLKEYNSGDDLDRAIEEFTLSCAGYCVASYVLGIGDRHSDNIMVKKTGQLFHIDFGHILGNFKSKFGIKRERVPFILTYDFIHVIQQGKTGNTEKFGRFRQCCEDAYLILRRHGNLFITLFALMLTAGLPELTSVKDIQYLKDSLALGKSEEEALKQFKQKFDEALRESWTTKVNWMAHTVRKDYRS
Sequence of PIK3CG (human) (P48736 whole entry, looked up): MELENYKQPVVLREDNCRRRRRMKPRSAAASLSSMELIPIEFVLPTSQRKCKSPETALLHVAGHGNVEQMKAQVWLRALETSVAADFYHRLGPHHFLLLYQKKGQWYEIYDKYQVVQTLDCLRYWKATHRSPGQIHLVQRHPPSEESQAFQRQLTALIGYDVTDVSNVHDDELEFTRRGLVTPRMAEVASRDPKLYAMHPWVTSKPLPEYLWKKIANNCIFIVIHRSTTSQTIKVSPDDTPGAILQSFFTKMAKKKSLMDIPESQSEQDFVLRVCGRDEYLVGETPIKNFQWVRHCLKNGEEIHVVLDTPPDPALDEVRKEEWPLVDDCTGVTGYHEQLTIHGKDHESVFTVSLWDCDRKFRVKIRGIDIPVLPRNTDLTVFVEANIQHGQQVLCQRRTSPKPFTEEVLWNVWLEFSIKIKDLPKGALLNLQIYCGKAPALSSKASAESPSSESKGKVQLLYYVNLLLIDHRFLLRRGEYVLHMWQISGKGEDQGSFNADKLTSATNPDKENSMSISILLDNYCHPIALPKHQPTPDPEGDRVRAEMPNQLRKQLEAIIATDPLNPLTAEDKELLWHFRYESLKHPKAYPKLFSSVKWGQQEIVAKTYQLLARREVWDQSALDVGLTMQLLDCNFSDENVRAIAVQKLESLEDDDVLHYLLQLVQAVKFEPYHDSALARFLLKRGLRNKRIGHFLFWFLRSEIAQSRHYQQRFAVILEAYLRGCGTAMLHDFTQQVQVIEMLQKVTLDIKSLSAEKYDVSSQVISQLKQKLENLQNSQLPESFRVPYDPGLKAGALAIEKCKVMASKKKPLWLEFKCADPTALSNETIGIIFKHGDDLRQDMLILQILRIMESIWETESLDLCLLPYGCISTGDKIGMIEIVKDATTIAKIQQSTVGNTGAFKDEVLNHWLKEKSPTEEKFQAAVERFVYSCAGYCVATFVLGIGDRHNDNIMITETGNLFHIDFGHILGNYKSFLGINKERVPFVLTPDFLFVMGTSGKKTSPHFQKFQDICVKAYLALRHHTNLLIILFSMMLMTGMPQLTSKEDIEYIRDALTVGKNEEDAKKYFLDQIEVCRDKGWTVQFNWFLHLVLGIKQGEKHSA
Sequence of PIK3CD (Human) (O00329 whole entry, looked up): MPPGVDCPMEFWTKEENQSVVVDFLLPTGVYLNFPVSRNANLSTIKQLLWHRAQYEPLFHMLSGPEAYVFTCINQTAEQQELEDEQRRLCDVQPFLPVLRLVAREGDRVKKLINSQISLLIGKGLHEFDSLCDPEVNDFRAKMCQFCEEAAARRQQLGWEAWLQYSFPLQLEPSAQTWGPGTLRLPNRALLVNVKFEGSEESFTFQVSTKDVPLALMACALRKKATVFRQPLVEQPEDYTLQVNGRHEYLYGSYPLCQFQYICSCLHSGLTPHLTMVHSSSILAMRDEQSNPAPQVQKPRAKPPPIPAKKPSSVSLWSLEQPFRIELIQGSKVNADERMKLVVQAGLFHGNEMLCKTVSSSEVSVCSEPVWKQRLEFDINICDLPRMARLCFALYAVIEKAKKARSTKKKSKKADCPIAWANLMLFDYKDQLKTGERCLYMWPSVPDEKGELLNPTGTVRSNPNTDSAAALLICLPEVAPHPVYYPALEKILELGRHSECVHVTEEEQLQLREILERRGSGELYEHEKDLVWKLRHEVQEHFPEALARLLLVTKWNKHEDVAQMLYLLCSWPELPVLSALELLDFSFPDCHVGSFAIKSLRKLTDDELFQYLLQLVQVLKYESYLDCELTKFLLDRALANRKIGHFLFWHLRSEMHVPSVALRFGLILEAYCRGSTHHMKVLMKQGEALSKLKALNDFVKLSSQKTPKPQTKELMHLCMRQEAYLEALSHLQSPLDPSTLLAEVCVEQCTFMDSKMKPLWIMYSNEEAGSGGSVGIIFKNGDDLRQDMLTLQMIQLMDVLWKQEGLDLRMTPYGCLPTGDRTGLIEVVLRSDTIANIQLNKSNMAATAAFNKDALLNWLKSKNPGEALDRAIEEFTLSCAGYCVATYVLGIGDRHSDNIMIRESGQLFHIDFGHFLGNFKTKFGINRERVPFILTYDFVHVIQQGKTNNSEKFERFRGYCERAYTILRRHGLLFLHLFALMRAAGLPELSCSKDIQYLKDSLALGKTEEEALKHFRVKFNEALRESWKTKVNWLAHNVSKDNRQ

Row | SMILES | IC50 [1] [nM] | IC50 [2] [nM] | IC50 [3] [nM] | IC50 [4] [nM]
1 | COc1cc(-c2cccc3cc([C@H](C)NC(=O)c4c(N)nn5cccnc45)n(-c4cccc(F)c4)c(=O)c23)ccn1 | 100 to 1000 | 100 to 1000 | ≥ 10000 | 
2 | C[C@H](NC(=O)c1c(N)oc2cccnc12)c1cc2cccc(Cl)c2c(=O)n1-c1ccccc1 |  |  |  | ≥ 10000
3 | CNS(=O)(=O)c1cccc(-c2cnc(N)c(C(=O)N[C@@H](C)c3cc4cccc(Cl)c4c(=O)n3-c3ccccc3)n2)c1 | < 100 | 100 to 1000 | 100 to 1000 | 
4 | C[C@H](NC(=O)c1c(N)nn2cccnc12)c1cc2cccc(C#CCNC(=O)C3CCC(=O)C3)c2c(=O)n1-c1ccccc1 (some centres not stated) | < 100 | < 100 |  | 100 to 1000
5 | C[C@H](NC(=O)c1nc(-c2cccc(NS(C)(=O)=O)c2)cnc1N)c1cc2cccc(Cl)c2c(=O)n1-c1ccccc1 | < 100 | < 100 | 100 to 1000 | 
6 | CC(=O)Nc1ncc(-c2cccc3cc([C@H](C)NC(=O)c4c(N)nn5cccnc45)n(-c4ccccc4)c(=O)c23)s1 |  | 100 to 1000 | ≥ 10000 | 
7 | CC(NC(=O)c1c(N)nn2cccnc12)c1cc2cccc(Cl)c2nc1-c1ccccc1 (configuration not stated) | < 100 |  |  | ≥ 10000
8 | C[C@H](NC(=O)c1cncc2cccnc12)c1cc2cccc(C(F)(F)F)c2c(=O)n1-c1ccccc1 | < 100 |  |  | 
9 | CC(C)NS(=O)(=O)c1cccc(-c2cnc(N)c(C(=O)N[C@@H](C)c3cc4cccc(Cl)c4c(=O)n3-c3ccccc3)n2)c1 | < 100 | 100 to 1000 | 100 to 1000 | 
10 | CC(C)Oc1ccc(-c2cnc(N)c(C(=O)N[C@@H](C)c3cc4cccc(Cl)c4c(=O)n3-c3ccccc3)n2)cc1F |  | 100 to 1000 | ≥ 10000 | 
11 | COc1cc(-c2cccc3nc([C@H](C)NC(=O)c4c(N)nn5cccnc45)n(C4CC4)c(=O)c23)ccn1 | 100 to 1000 |  |  | 
12 | C=CC(=O)NCCC#Cc1cccc2cc([C@H](C)NC(=O)c3c(N)nn4cccnc34)n(-c3ccccc3)c(=O)c12 | < 100 | 100 to 1000 |  | 
13 | C[C@H](NC(=O)c1c(N)nn2cccnc12)c1cc2cccc(-c3ccncc3)c2c(=O)n1-c1ccccc1 | < 100 | 100 to 1000 | ≥ 10000 | 
14 | C[C@H](NC(=O)c1c(N)nn2cccnc12)c1cc2cccc(C(F)(F)F)c2c(=O)n1-c1ccccc1 | < 100 | 100 to 1000 |  | ≥ 10000
15 | C[C@H](NC(=O)c1nc(-c2cccc(S(C)(=O)=O)c2)cnc1N)c1cc2cccc(Cl)c2c(=O)n1-c1ccccc1 | 100 to 1000 | 100 to 1000 |  | 
16 | CC(=O)NCC#Cc1cccc2cc([C@H](C)NC(=O)c3c(N)nn4cccnc34)n(-c3ccccc3)c(=O)c12 | < 100 | < 100 |  | 
17 | C[C@H](NC(=O)c1c(N)nn2cccnc12)c1cc2cccc(CO)c2c(=O)n1-c1ccccc1 | 100 to 1000 | 100 to 1000 |  | ≥ 10000
18 | C[C@H](NC(=O)c1nc(-c2cccc(S(=O)(=O)N(C)C)c2)cnc1N)c1cc2cccc(Cl)c2c(=O)n1-c1ccccc1 | 100 to 1000 |  |  | ≥ 10000
19 | C[C@H](NC(=O)c1nc(-c2cccc(S(=O)(=O)NC3CC3)c2)cnc1N)c1cc2cccc(Cl)c2c(=O)n1-c1ccccc1 | < 100 |  |  | ≥ 10000
20 | COc1ccc(-c2cnc(N)c(C(=O)N[C@@H](C)c3cc4cccc(Cl)c4c(=O)n3-c3ccccc3)n2)cc1OC | 100 to 1000 | 100 to 1000 |  | 
21 | C[C@H](NC(=O)c1c(N)nn2cccnc12)c1cc2ccsc2c(=O)n1-c1ccccc1 | 100 to 1000 |  |  | ≥ 10000
22 | C[C@H](NC(=O)c1c(N)nn2cccnc12)c1cc2sccc2c(=O)n1-c1ccccc1 | 100 to 1000 |  |  | ≥ 10000
23 | CC#Cc1cccc2cc([C@H](C)NC(=O)c3c(N)nn4cccnc34)n(-c3ccccc3)c(=O)c12 | < 100 | < 100 |  | 
24 | C[C@H](NC(=O)c1c(N)nn2cccnc12)c1cc2cccc(C#CCNC(=O)C3CCCCC3)c2c(=O)n1-c1ccccc1 | < 100 | 100 to 1000 |  | 
25 | C[C@H](NC(=O)c1cncc2cccnc12)c1cc2cccc(Cl)c2c(=O)n1-c1ccc(F)cc1 | < 100 |  |  | 
26 | CC(C)n1c([C@H](C)NC(=O)c2c(N)nn3cccnc23)cc2cccc(Cl)c2c1=O | < 100 | 100 to 1000 | 100 to 1000 | 
27 | C[C@H](NC(=O)c1c(N)nn2cccnc12)c1cc2cccc(-c3cncs3)c2c(=O)n1-c1ccccc1 | < 100 | 100 to 1000 | ≥ 10000 | 
28 | CC(C)Oc1cc(-c2cccc3nc([C@H](C)NC(=O)c4c(N)nn5cccnc45)n(-c4ccccc4)c(=O)c23)ccn1 | < 100 |  |  | ≥ 10000
29 | C[C@H](NC(=O)c1nc(-c2cccc(NS(=O)(=O)C3CC3)c2)cnc1N)c1cc2cccc(Cl)c2c(=O)n1-c1ccccc1 | < 100 | < 100 | 100 to 1000 | 
30 | C[C@H](NC(=O)c1cnn2cccnc12)c1cc2cccc(Cl)c2c(=O)n1-c1ccc(F)cc1 | 100 to 1000 | 100 to 1000 |  | 

— the Kinase Knowledgebase extract (Sharma et al. 2016)
